From patent US12448394B2, “Heterocyclic pyrazole derivatives as type III receptor tyrosine kinase inhibitors” (DEVELOPMENT CENTER FOR BIOTECHNOLOGY, priority 2019, dated 2025)

Legend:
FLT3-D835Y mutant kinase = target: T1, FLT3-D835Y mutant kinase (Homo sapiens, UniProt P36888, D835Y); assay: FLT3-D835Y mutant kinase assay (AlphaScreen); assay type: biochemical; conditions: read-out: Ranking of IC50 values, FLT3-D835Y
T1 construct: purchased SignalChem
T1 sequence (P36888 27-993 D835Y): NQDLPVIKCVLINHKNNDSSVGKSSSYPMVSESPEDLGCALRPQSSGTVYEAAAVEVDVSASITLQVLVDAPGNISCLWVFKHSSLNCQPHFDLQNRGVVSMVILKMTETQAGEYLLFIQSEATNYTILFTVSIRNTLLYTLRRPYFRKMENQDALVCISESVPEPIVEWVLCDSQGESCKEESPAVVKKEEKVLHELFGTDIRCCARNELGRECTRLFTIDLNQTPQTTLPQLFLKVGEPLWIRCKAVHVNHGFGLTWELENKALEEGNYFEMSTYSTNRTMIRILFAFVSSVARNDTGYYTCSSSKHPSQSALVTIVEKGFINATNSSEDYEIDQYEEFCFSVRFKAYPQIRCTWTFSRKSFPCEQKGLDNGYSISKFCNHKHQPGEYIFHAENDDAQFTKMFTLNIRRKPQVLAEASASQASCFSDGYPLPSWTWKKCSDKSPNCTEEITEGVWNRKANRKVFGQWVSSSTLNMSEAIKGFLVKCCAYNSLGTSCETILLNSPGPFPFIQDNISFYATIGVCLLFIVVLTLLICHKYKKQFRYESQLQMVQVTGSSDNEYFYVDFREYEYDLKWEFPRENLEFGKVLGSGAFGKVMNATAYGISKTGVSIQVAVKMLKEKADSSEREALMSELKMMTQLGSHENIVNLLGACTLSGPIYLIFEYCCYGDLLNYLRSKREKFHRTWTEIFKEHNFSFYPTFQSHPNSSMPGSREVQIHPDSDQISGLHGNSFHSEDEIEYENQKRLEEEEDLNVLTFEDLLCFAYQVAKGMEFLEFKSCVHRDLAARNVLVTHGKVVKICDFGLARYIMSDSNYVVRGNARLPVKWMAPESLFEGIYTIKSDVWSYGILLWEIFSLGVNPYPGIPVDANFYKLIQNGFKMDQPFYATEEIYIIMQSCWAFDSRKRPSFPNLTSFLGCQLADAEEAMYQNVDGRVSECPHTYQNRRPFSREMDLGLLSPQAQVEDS
Method in brief: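 Recombinant FLT3-D835Y (1 ng) phosphorylated biotin-poly(Glu4:Tyr1) at 10 μM ATP, pH 7.0 MOPS buffer with 10 mM MgCl2, for 30 min at 30 °C, stopped with EDTA. Product was read by AlphaScreen. IC50 came from serial dilutions run in duplicate.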

[1] = test system: phosphorylation of FLT3 and its down-stream effector STAT5; assay: Western blotting of p-FLT3 and p-STAT5 in MV4-11 cells; assay type: cell-based; conditions: Homo sapiens; at 30 nM treatment, 3 hours, FLT3-ITD positive MV4-11 leukemia cells; read-out: inhibition activity against phosphorylation of FLT3 and its down-stream effector STAT5
Method in brief: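 MV4-11 cells held overnight in IMDM with 0.1% FBS, then 3 million cells treated with compound for 3 h. Whole lysates immunoblotted for p-FLT3 (Tyr-591), p-STAT5 (Tyr-694) and actin. Band intensities at 30 nM compared to DMSO control; % inhibition = (1 − relative intensity) × 100.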

[2] = test system: THP-1 human acute monocytic leukemia cell with NRAS G12D mutation; assay: THP-1 cell proliferation assay (counter screen); assay type: cell-based; conditions: Homo sapiens, THP-1 cells, 72 hours treatment, CellTiter96, read-out: anti-proliferation activity THP-1 NRAS N12D, IC50 ranking
Method in brief: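 THP-1 cells (NRAS G12D, growth independent of class III RTK signaling) seeded at 5000 cells/well overnight, then exposed to increasing compound concentrations for 72 h at 37° C, 5% CO2. Viability read by CellTiter96 AQueous One reagent (2–4 h) as absorbance at 490 nm.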

## Cn1nnc2ccc(-c3n[nH]c4c3Cc3sc(-c5ccc(CN6CCOCC6)cc5)cc3-4)cc21 [Compound 89, 4-(4-(3-(1-methyl-1H-benzo[d][1,2,3]triazol-6-yl)-1,4-dihydrothieno [2′,3′:4,5]cyclopenta [1,2-c]pyrazol-6-yl)benzyl)morpholine]
FLT3-D835Y mutant kinase
  IC50: 1 to 10 nM
[1]
  inhibition at 0.03 µM: > 50%
[2]
  IC50: > 10000 nM
